Data on nine compounds can be found in patent US6469028B1, “Synthesis and use of retinoid compounds having negative hormone and/or anatgonist activities” (Allergan, Inc., priority 1995, dated 2002).

Each structure is given as a SMILES string.

As a reminder, the Kd is the concentration at which binding is half-saturated.

Experiment [1] concerns the target T1, RARγ (Homo sapiens, UniProt P13631).
T1 sequence (P13631 1-454): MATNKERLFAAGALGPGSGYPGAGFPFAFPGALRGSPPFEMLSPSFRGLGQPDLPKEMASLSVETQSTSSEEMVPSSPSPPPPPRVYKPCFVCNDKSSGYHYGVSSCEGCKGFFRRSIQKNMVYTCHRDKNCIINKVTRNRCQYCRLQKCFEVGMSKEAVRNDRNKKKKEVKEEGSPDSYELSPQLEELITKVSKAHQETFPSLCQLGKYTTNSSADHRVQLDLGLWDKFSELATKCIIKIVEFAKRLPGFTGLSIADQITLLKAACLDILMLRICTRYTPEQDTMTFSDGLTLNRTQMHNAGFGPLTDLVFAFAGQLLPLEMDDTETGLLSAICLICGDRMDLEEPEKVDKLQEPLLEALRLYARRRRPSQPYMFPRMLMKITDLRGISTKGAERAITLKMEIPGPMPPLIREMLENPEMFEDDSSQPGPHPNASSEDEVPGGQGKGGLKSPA
Description: [3H]-ATRA displacement assay, baculovirus expressed receptor. Type of experiment: binding. Details: made in house; host or cells: baculovirus expression system.

The next experiment deals with T2, RARα (Homo sapiens, UniProt P10276).
T2 sequence (P10276 1-462): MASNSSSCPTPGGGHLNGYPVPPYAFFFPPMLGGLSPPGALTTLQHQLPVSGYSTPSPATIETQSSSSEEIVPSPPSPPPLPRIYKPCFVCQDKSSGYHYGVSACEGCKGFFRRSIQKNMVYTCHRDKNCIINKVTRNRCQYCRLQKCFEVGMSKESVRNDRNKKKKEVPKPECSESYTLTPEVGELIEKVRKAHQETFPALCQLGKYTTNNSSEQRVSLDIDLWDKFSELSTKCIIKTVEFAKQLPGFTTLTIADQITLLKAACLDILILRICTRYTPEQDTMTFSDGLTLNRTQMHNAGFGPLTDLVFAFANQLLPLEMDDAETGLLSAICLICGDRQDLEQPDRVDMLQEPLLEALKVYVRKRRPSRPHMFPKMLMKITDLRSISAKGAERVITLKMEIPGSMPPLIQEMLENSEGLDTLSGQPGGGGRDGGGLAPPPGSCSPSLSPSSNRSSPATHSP
Description: Ligand binding assay. The following applies: read-out: Kd (nanomolar) RARα. Details: expressed in transfected cells; host or cells: CV1 cells. From the text:
(§1) A holoreceptor transactivation assay and a ligand binding assay which measure the antagonist/agonist like activity of the compounds of the invention, or their ability to bind to the several retinoid receptor subtypes, respectively, are described in published PCT Application No. WO93/11755 (particularly on pages 30-33 and 37-41) published on Jun. 24, 1993, the specification of which is also incorporated herein by reference. A description of the holoreceptor transactivation assay is also provided below.
(§2) CV1 cells (5,000 cells/well) were transfected with an RAR reporter plasmid MTV-TREp-LUC (50 ng) along with one of the RAR expression vectors (10 ng) in an automated 96-well format by the calcium phosphate procedure of Heyman et al. Cell 68: 397-406. For RXR-α and RXR-γ transactivation assays, an RXR-responsive reporter plasmid CRBPII-tk-LUC (50 ng) along with the appropriate RXR expression vectors (10 ng) was used substantially as described by Heyman et al. above, and Allegretto et al. J. Biol. Chem. 268: 26625-26633. For RXR-β transactivation assays, an RXR-responsive reporter plasmid CPRE-tk-LUC ([…]) along with RXR-β expression vector ([…]) was used as described in above. These reporters contain DRI elements from human CRBPII and certain DRI elements from promotor, respectively (see Mangelsdorf et al. The Retinoids: Biology Chemistry and Medicine, pp. 319-349, Raven Press Ltd., New York and Heyman et al., cited above). A β-galactosidase (50 ng) expression vector was used as an internal control in the transfections to normalize for variations in transfection efficiency. The cells were transfected in triplicate for 6 hours, followed by incubation with retinoids for 36 hours, and the extracts were assayed for luciferase and […] activities. The detailed experimental procedure for holoreceptor transactivations has been described in Heyman et al. above, and Allegretto et al. cited above. The results obtained in this assay are expressed in EC50 numbers, as they are also in the chimeric receptor transactivation assay. The Heyman et al. Cell 68: 397-406, Allegretto et al. J. Biol. Chem. 268: 26625-26633, and Mangelsdorf et al. The Retinoids: Biology, Chemistry, and Medicine, pp. 319-349, Raven Press Ltd., New York, are expressly incorporated herein by reference. The results of ligand binding assay are expressed in Kd numbers. (See Cheng et al. Biochemical Pharmacology 22: 3099-3108, expressly incorporated herein by reference.) […]

Experiment [2] concerns the target T1, RARγ. Description: Ligand binding assay. Details: expressed in transfected cells; host or cells: CV1 cells. The following applies: read-out: Kd (nanomolar) RARγ.
Description: as §1, §2

The next experiment has as its system RAR-γ-VP-16. Description: Example 12: assay for retinoid negative hormones, CV-1 cells. Format: cell-based. The note with it: 10^−9 to 10^−6 M, 18 hours, no agonist.
In a further experiment the target is T3, RARβ (Homo sapiens, UniProt P10826).
T3 sequence (P10826 1-455): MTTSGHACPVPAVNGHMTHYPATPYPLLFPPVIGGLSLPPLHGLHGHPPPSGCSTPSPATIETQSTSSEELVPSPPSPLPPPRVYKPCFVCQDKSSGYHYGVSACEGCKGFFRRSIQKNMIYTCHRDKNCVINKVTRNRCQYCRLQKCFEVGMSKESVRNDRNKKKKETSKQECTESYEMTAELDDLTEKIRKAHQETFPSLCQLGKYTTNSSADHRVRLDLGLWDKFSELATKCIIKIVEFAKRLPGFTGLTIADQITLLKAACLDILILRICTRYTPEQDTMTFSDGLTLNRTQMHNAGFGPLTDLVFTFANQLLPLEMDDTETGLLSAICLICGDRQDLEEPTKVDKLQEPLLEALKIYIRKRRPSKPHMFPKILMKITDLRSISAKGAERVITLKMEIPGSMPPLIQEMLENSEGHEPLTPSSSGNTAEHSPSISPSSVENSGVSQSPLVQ
Description: Ligand binding assay. The following applies: read-out: Kd (nanomolar) RARβ.
Description: as §1, §2

For experiment [3], the system named is patients having retinal detachment resulting from PVR. The note with it: 40 mg oral AGN 193109 + 4 mg oral 13-cis retinoic acid twice daily for four weeks.
Where [4] appears, read: Table 12, relative affinity, competition of 3H-ATRA binding, Cheng-Prussof equation.

For `CC1(C)CC=C(c2ccc(Cl)cc2)c2cc(C#Cc3ccc(C(=O)O)cc3)ccc21` [Compound 25, 4-[(5,6-Dihydro-5,5-dimethyl-8-(4-chlorophenyl)-2-naphthalenyl)ethynyl]benzoic acid], the Kd at RARγ [1] (setting [4]) turned out to be 13 nM; at RARα, 50 nM; at RARγ [2], 20 nM; at RARβ, 17 nM. Also, the “RAR-γ-VP-16 constitutive activity (negative hormone activity)” value (shortened to “RAR-γ-VP-16 constitutive activity”) with RAR-γ-VP-16 is reported as “dose dependent repression of RAR-γ-VP-16 constitutive activity”.

As to `Cc1ccc(C2=CCC(C)(C)c3ccc(C#Cc4ccc(C(=O)O)cc4)cc32)cc1` [Compound 60, 4-[(5,6-dihydro-5,5-dimethyl-8-(4-methylphenyl)-2-naphthalenyl)ethynyl]benzoic acid], the Kd at RARγ [1] (Table 11) turned out to be 3 nM; at RARγ [1] (setting [4]), 6 nM; on RARα, 1.5 nM; at RARγ [2], 3.3 nM; at RARβ, 1.9 nM. In the experiment with RAR-γ-VP-16, the “RAR-γ-VP-16 constitutive activity” value is listed as “dose dependent repression of RAR-γ-VP-16 constitutive activity”. In experiment [3], the “therapeutic outcome versus 40 mg oral 13-cis retinoic acid” value is “equal to or better than”.

For `COc1ccc(C2=CCC(C)(C)c3ccc(C#Cc4ccc(C(=O)O)cc4)cc32)cc1` [Compound 22, 4-[(5,6-Dihydro-5,5-dimethyl-8-(4-methoxyphenyl)-2-naphthalenyl)ethynyl]benzoic acid], the Kd was found to be 24 nM at RARα, 27 nM on RARγ [2] and 17 nM at RARβ.

For `Cc1ccc(C2=CCC(C)(C)c3ccc(C#Cc4ccc(C(=O)O)cc4)cc32)s1` [Compound 34, 4-[(5,6-Dihydro-5,5-dimethyl-8-(5-methyl-2-thienyl)-2-naphthalenyl)ethynyl]benzoic acid], the results for the Kd at RARα, at RARγ [2] and on RARβ were 52 nM, 17 nM and 30 nM, respectively.

`Cc1csc(C2=CCC(C)(C)c3ccc(C#Cc4ccc(C(=O)O)cc4)cc32)n1` [Compound 31, 4-[(5,6-Dihydro-5,5-dimethyl-8-(4-methylthiazol-2-yl)-2-naphthalenyl)ethynyl]benzoic acid]: the Kd on RARα was 370 nM; at RARγ [2] it was 100 nM; at RARβ it was 52 nM.

Consider `CC1(C)CC=C(c2ccccc2)c2ccc(C(=O)C=Cc3ccc(C(=O)O)cc3)cc21` [Compound 103, 4-[3-oxo-3-(7,8-dihydro-5-phenyl-8,8-dimethyl-2-naphthalenyl)-1-propenyl]-benzoic acid], for which the Kd at RARα was 301 nM; at RARγ [2], 261 nM; on RARβ, 273 nM.

Regarding `Cc1ccc(C2=CCC(C)(C)c3ccc(C(=O)Oc4ccc(C(=O)O)cc4)cc32)cc1` [Compound 39, 4-[[(5,6-Dihydro-5,5-dimethyl-8-(4-methylphenyl)-2-naphthalenyl)carbonyl]oxy]-benzoic acid], the Kd on RARα turned out to be 67 nM; on RARγ [2], 113 nM; on RARβ, 38 nM.

As for `CC1(C)CC=C(c2ccc(C(F)(F)F)cc2)c2cc(C#Cc3ccc(C(=O)O)cc3)ccc21` [Compound 23, 4-[(5,6-Dihydro-5,5-dimethyl-8-(4-trifluoromethylphenyl)-2-naphthalenyl)ethynyl]benzoic acid], the Kd at RARγ [1] (setting [4]) turned out to be 25 nM; at RARα, 32 nM; at RARγ [2], 31 nM; on RARβ, 25 nM. In the experiment on RAR-γ-VP-16, the “RAR-γ-VP-16 constitutive activity” value is “dose dependent repression of RAR-γ-VP-16 constitutive activity”.

Consider `CCc1ccc(C2=CCC(C)(C)c3ccc(C#Cc4ccc(C(=O)O)cc4)cc32)cc1` [Compound 21, 4-[(5,6-Dihydro-5,5-dimethyl-8-(4-ethylphenyl)-2-naphthalenyl)ethynyl]benzoic acid], for which the Kd on RARα was determined as 16 nM; on RARγ [2], 13 nM; on RARβ, 9 nM.
